This is an account of results in patent publication US11364248B2 (AMGEN INC., priority 2017, dated 2022).

The test system of the first test is OPM-2. As to the kind of experiment: Cell Viability Assay (OPM-2 10 FBS). The format is cell-based, human. To be noted: OPM-2 cells, 16 h, CellTiter-Glo, read-out: OPM-2 10% FBS IC50 IP. Here is the method:
Cell Viability Assay (OPM-2 10 FBS)
The human multiple myeloma cell line, OPM-2, was cultured in complete growth medium containing RPMI 1640 and 10% fetal bovine serum (FBS). Cells were seeded into 384-well plates at 3000 cells/well density in complete growth medium containing 10% FBS, and incubated for 16 h with serially diluted test compounds in a 37° C. incubator with 5% CO2. Cell viability was tested using CellTiter-Glo® assay (Promega, Madison, Wis.) according to the manufacturer recommendations. Luminescence was determined using an EnVision® Multilabel plate reader 25 min after the addition of detection reagent. IC50 values were then calculated with Xlfit using a logistical 4-parameter fit model in GraphPad Prism (GraphPad Software, San Diego, Calif.) or in Genedata Screener® (Genedata, Basel, Switzerland).
In general terms: ATP-based viability assays read luminescence as a measure of living cells.
Usually IC50 stands for the concentration at which inhibition is half-maximal. Turning to `COC1CN([C@H]2CO[C@@H]([C@H]3CCC[C@H](C)[C@@H](C)S(=O)(=O)NC(=O)c4ccc5c(c4)N(C[C@@H]4CC[C@H]43)C[C@@]3(CCCc4cc(Cl)ccc43)CO5)OC2)C1` [Example 52, (1S,3′R,6′R,7′S,11′S,12′R)-6-chloro-7′-(cis-5-(3-methoxy-1-azetidinyl)-1,3-dioxan-2-yl)-11′,12′-dimethyl-3,4-dihydro-2H,15′H-spiro[naphthalene-1,22′-[20]oxa[13]thia[1,14]diazatetracyclo [14.7.2.0~3,6~.0~19,24~]pentacosa[16,18,24]trien]-15′-one 13′,13′-dioxide], the IC50 came out at 59 nM.
On the same count and under the same terms, under `COC1CN([C@H]2CO[C@@H]([C@H]3CCC[C@H](C)[C@@H](C)S(=O)(=O)NC(=O)c4ccc5c(c4)N(C[C@@H]4CC[C@H]43)C[C@@]3(CCCc4cc(Cl)ccc43)CO5)OC2)C1` [Example 53, (1S,3′R,6′R,7′S,11′S,12′R)-6-chloro-7′-(cis-5-(3-methoxy-1-azetidinyl)-1,3-dioxan-2-yl)-11′,12′-dimethyl-3,4-dihydro-2H,15′H-spiro[naphthalene-1,22′-[20]oxa[13]thia[1,14]diazatetracyclo [14.7.2.0~3,6~.0~19,24~]pentacosa[16,18,24]trien]-15′-one 13′,13′-dioxide] stands 184 nM.
Still for that read-out and setting: with `COC1CN([C@H]2CO[C@@H]([C@H]3CCC[C@H](C)[C@@H](C)S(=O)(=O)NC(=O)c4ccc5c(c4)N(C[C@@H]4CC[C@H]43)C[C@@]3(CCCc4cc(Cl)ccc43)CO5)OC2)C1` [Example 54, (1S,3′R,6′R,7′S,11′S,12′R)-6-chloro-7′-(cis-5-(3-methoxy-1-azetidinyl)-1,3-dioxan-2-yl)-11′,12′-dimethyl-3,4-dihydro-2H,15′H-spiro[naphthalene-1,22′-[20]oxa[13]thia[1,14]diazatetracyclo [14.7.2.0~3,6~.0~19,24~]pentacosa[16,18,24]trien]-15′-one 13′,13′-dioxide] the figure was 547 nM; with `CCN(CC)[C@H]1CO[C@@H]([C@H]2CCC[C@H](C)[C@@H](C)S(=O)(=O)NC(=O)c3ccc4c(c3)N(C[C@@H]3CC[C@H]32)C[C@@]2(CCCc3cc(Cl)ccc32)CO4)OC1` [Example 57, (1S,3′R,6′R,7′S,11′S,12′R)-6-chloro-7′-(cis-5-(diethylamino)-1,3-dioxan-2-yl)-11′,12′-dimethyl-3,4-dihydro-2H,15′H-spiro[naphthalene-1,22′-[20]oxa[13]thia[1,14]diazatetracyclo [14.7.2.0~3,6~.0~19,24~]pentacosa[16,18,24]trien]-15′-one 13′,13′-dioxide], 164 nM; with `CCN(CC)[C@H]1CO[C@@H]([C@H]2CCC[C@H](C)[C@@H](C)S(=O)(=O)NC(=O)c3ccc4c(c3)N(C[C@@H]3CC[C@H]32)C[C@@]2(CCCc3cc(Cl)ccc32)CO4)OC1` [Example 58, (1S,3′R,6′R,7′S,11′S,12′R)-6-chloro-7′-(cis-5-(diethylamino)-1,3-dioxan-2-yl)-11′,12′-dimethyl-3,4-dihydro-2H,15′H-spiro[naphthalene-1,22′-[20]oxa[13]thia[1,14]diazatetracyclo [14.7.2.0~3,6~.0~19,24~]pentacosa[16,18,24]trien]-15′-one 13′,13′-dioxide], 512 nM.
With `C[C@@H]1[C@@H](C)CCC[C@H]([C@H]2OC[C@@H](N3CC(N(C)C)C3)CO2)[C@@H]2CC[C@H]2CN2C[C@@]3(CCCc4cc(Cl)ccc43)COc3ccc(cc32)C(=O)NS1(=O)=O` [Example 67, (1S,3′R,6′R,7′S,11′S,12′R)-6-chloro-7′-(cis-5-(3-(dimethylamino)-1-azetidinyl)-1,3-dioxan-2-yl)-11′,12′-dimethyl-3,4-dihydro-2H,15′H-spiro[naphthalene-1,22′-[20]oxa[13]thia[1,14]diazatetracyclo [14.7.2.0~3,6~.0~19,24~]pentacosa[16,18,24]trien]-15′-one 13′,13′-dioxide], the IC50 was 220 nM.
On the same count and under the same terms, under `C[C@@H]1[C@@H](C)CCC[C@H]([C@H]2OC[C@@H](N3CC(N(C)C)C3)CO2)[C@@H]2CC[C@H]2CN2C[C@@]3(CCCc4cc(Cl)ccc43)COc3ccc(cc32)C(=O)NS1(=O)=O` [Example 68, (1S,3′R,6′R,7′S,11′S,12′R)-6-chloro-7′-(cis-5-(3-(dimethylamino)-1-azetidinyl)-1,3-dioxan-2-yl)-11′,12′-dimethyl-3,4-dihydro-2H,15′H-spiro[naphthalene-1,22′-[20]oxa[13]thia[1,14]diazatetracyclo [14.7.2.0~3,6~.0~19,24~]pentacosa[16,18,24]trien]-15′-one 13′,13′-dioxide] stands 517 nM.
As to `COCC[C@@H]1[C@@H](C)CCC[C@H]([C@H]2OC[C@@H](N(C)C)CO2)[C@@H]2CC[C@H]2CN2C[C@@]3(CCCc4cc(Cl)ccc43)COc3ccc(cc32)C(=O)NS1(=O)=O` [Example 82, (1S,3′R,6′R,7′S,11′S,12′R)-6-chloro-7′-(cis-5-(dimethylamino)-1,3-dioxan-2-yl)-12′-(2-methoxyethyl)-11′-methyl-3,4-dihydro-2H,15′H-spiro[naphthalene-1,22′-[20]oxa[13]thia[1,14]diazatetracyclo [14.7.2.0~3,6~.0~19,24~]pentacosa[16,18,24]trien]-15′-one 13′,13′-dioxide], the concentration for half-maximal inhibition (IC50) amounted to 33 nM.
The same measure, in the same setting: with `C[C@@H]1CS(=O)(=O)NC(=O)c2ccc3c(c2)N(C[C@@H]2CC[C@H]2[C@@H]([C@H]2OC[C@@H](N(C)C)CO2)CC[C@@H]1C)C[C@@]1(CCCc2cc(Cl)ccc21)CO3` [Example 84, (1S,3′R,6′R,7′S,10′S,11′S)-6-chloro-7′-(cis-5-(dimethylamino)-1,3-dioxan-2-yl)-10′,11′-dimethyl-3,4-dihydro-2H,15′H-spiro[naphthalene-1,22′-[20]oxa[13]thia[1,14]diazatetracyclo [14.7.2.0~3,6~.0~19,24~]pentacosa[16,18,24]trien]-15′-one 13′,13′-dioxide] the figure was 145 nM.
Still for that read-out and setting: under `C[C@@H]1CS(=O)(=O)NC(=O)c2ccc3c(c2)N(C[C@@H]2CC[C@H]2[C@@H]([C@H]2OC[C@@H](N(C)C)CO2)CC[C@@H]1C)C[C@@]1(CCCc2cc(Cl)ccc21)CO3` [Example 85, (1S,3′R,6′R,7′S,10′S,11′S)-6-chloro-7′-(cis-5-(dimethylamino)-1,3-dioxan-2-yl)-10′,11′-dimethyl-3,4-dihydro-2H,15′H-spiro[naphthalene-1,22′-[20]oxa[13]thia[1,14]diazatetracyclo [14.7.2.0~3,6~.0~19,24~]pentacosa[16,18,24]trien]-15′-one 13′,13′-dioxide] stands 1090 nM; under `COC[C@@H]1[C@@H](C)CCC[C@H]([C@H]2OC[C@@H](N(C)C)CO2)[C@@H]2CC[C@H]2CN2C[C@@]3(CCCc4cc(Cl)ccc43)COc3ccc(cc32)C(=O)NS1(=O)=O` [Example 91, (1S,3′R,6′R,7′S,11′S,12′S)-6-chloro-7′-(cis-5-(dimethylamino)-1,3-dioxan-2-yl)-12′-(methoxymethyl)-11′-methyl-3,4-dihydro-2H,15′H-spiro[naphthalene-1,22′-[20]oxa[13]thia[1,14]diazatetracyclo [14.7.2.0~3,6~.0~19,24~]pentacosa[16,18,24]trien]-15′-one 13′,13′-dioxide], 47 nM.
On the same count and under the same terms, under `COC[C@@H]1[C@@H](C)CCC[C@H]([C@H]2OC[C@@H](N(C)C)CO2)[C@@H]2CC[C@H]2CN2C[C@@]3(CCCc4cc(Cl)ccc43)COc3ccc(cc32)C(=O)NS1(=O)=O` [Example 92, (1S,3′R,6′R,7′S,11′S,12′S)-6-chloro-7′-(cis-5-(dimethylamino)-1,3-dioxan-2-yl)-12′-(methoxymethyl)-11′-methyl-3,4-dihydro-2H,15′H-spiro[naphthalene-1,22′-[20]oxa[13]thia[1,14]diazatetracyclo [14.7.2.0~3,6~.0~19,24~]pentacosa[16,18,24]trien]-15′-one 13′,13′-dioxide] stands 988 nM.

The next test deals with Mcl-1/Bim interaction (Homo sapiens (Human), UniProt Q07820). Briefly: Cell Free Mcl-1: Bim Affinity Assay (Mcl-1 HTRF). The format is binding. As to conditions: TR-FRET, recombinant human Mcl-1(171-327), biotin-Bim(51-76); read-out: Mel-1 HTRF IC50. Here is the method: Cell Free Mcl-1: Bim Affinity Assay (Mcl-1 HTRF)
Chain of Mcl-1/Bim interaction (Q07820 171-327): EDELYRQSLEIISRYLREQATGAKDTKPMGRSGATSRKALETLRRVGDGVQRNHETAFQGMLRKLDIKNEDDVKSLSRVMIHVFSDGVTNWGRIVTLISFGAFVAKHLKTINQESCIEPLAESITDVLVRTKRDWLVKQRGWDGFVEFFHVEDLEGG
The inhibition of the Mcl-1/Bim interaction was measured using a time-resolved fluorescence resonance energy transfer (TR-FRET) assay. The recombinant human Mcl-1 (C-terminally 6×His tagged Mcl-1 containing residues 171-327) was generated at Amgen Inc (Thousand Oaks, Calif.). A biotinylated peptide derived from human Bim (residues 51-76) was purchased from CPC Scientific (San Jose, Calif.). The TR-FRET assay was conducted in a 384-well white OptiPlate™ (PerkinElmer, Waltham, Mass.) in a total volume of 40 μL. The reaction mixture contained 0.1 nM Mcl-1(171-327), 0.05 nM biotin-Bim(51-76), 0.05 nM LANCER Eu-W1024 Anti-6×His (PerkinElmer), 0.072 nM Streptavidin-Xlent (Cisbio, Bedford, Mass.), and serially diluted test compounds in the binding buffer of 20 mM Hepes, pH 7.5, 150 mM NaCl, 0.016 mM Brij©35, and 1 mM dithiothreitol. Test compounds were pre-incubated with Mcl-1(171-327) and biotin-Bim (51-76) for 60 min before addition of the detection mixture (LANCE Eu-W1024 Anti-6×His and Streptavidin-Xlent). The reaction plates were further incubated overnight and then were read on an Envision® multimode reader (PerkinElmer). Fluorescence signals were measured at 620 nm (40-nm bandwidth) and 665 nm (7.5-nm bandwidth) with a 60 μs delay after excitation at 320 nm (75-nm bandwidth). The signal ratio at 665/620 nm corresponded to the Mcl-1/Bim interaction and was used in all data analyses. The IC50 values of test compounds were determined from duplicate data by analyzing competition curves using a four-parameter sigmoidal model in GraphPad Prism (GraphPad Software, San Diego, Calif.) or in Genedata Screener® (Genedata, Basel, Switzerland).
For `C[C@@H]1[C@@H](C)CCC[C@H]([C@H]2OC[C@H](N3C(=O)c4ccccc4C3=O)CO2)[C@@H]2CC[C@H]2CN2C[C@@]3(CCCc4cc(Cl)ccc43)COc3ccc(cc32)C(=O)NS1(=O)=O` (relative stereo) [Example 45], the IC50 stood at 4.68 nM.
